Assay results as given in patent publication US8609610B2, “Inhibitors of the trypsin-like site of the proteasome and methods of use thereof” (Trustees of Dartmouth College, priority 2011, dated 2013).

Key:
[1] = tested on: chymotrypsin-like sites; details: patients treated with carfilzomib; cited from earlier work
[2] = tested on: T1, chymotrypsin-like sites (β5) of proteasome in MM cells; test: PROTEASOMEGLO assay of proteasome inhibition in MM cells; type: cell-based; details: for Inhibition of chymotrypsin-like sites, 6 h −NC-022: washout
T1 construct: other: NCI-H929; bortezomib 100 nM 1 h; bortezomib 11 nM 1 h; bortezomib 3.7 nM 1 h; bortezomib 33 nM 1 h; other: NCI-H9

[3] = tested on: chymotrypsin-like sites (β5) of proteasome in MM cells; test: as above; type: cell-based; details: washout
[4] = molecular target: T2, trypsin-like sites (β2) of proteasome in MM cells (Homo sapiens, UniProt Q99436); test: as above; type: cell-based; details: for Inhibition of trypsin-like sites, 6 h +NC-022 / Inhibition of trypsin-like sites, 6 h −NC-022: washout
T2 construct: endogenous in cells; host or cells: NCI-H929, RPMI-8226 and other MM cell lines
T2 sequence (Q99436 44-277): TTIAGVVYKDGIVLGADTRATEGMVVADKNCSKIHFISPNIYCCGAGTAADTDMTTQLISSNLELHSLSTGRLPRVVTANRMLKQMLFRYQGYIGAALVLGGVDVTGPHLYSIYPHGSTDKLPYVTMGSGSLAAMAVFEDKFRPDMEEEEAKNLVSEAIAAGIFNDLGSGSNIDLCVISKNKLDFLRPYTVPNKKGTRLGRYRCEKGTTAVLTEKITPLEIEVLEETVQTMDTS

[5] = tested on: KMS-12-BM cells; test: ALAMAR BLUE cell viability assay; type: cell-based; details: viability at 48 h
In short: (§1)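 Myeloma lines were grown in RPMI-1640 with 10% FBS; viability of myeloma cells was read by ALAMAR BLUE mitochondrial dye conversion. PBMNC viability used CELL TITER-GLO ATP luminescence. Caspase-3/7 activity in NCI-H929 and MM1.R was measured with the APO-ONE homogeneous assay.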

[6] = tested on: NCI-H929 cells; test: ALAMAR BLUE cell viability assay; type: cell-based; details: NCI-H929, viability at 48 h
In short: as §1

[7] = tested on: trypsin-like sites (β2) of proteasome in MM cells; test: PROTEASOMEGLO assay of proteasome inhibition in MM cells; type: cell-based
[8] = tested on: Cathepsin B, H, L, S; test: Cathepsin activity with pan-cathepsin substrate Z-FR-amc; type: cell-based; details: NCI-H929 cells, 6 hour treatment
Method: Cathepsin B, H, L, S activity was measured with pan-cathepsin substrate Z-FR-amc (Kirschke & Wiederanders (1994) Methods Enzymol. 244:500-11) in extracts of cytosol-less cells at pH 6.0 (Screen, et al. (2010) supra). Cathepsin D activity was measured in cytosol-less extracts using SENSOLYTE 520 Cathepsin D Fluorometric Assay Kit (AnaSpec). Combined cathepsin D and E activity was measured using the same kit, in which cathepsin D substrate provided with the kit was replaced with 7-Methoxycoumarin-[…](Dnp)-X′-NH2 (SEQ ID NO:10; where “X′” stand for D-Arg) internally quenched fluorogenic substrate of cathepsin D and E. In this case, pH 3.0 assay buffer used for cell extraction. All activity observed using both procedures was inhibited by more than 98% by specific inhibitor of aspartic proteases pepstatin A.

[9] = molecular target: T3, chymotrypsin-like site of 26S proteasomes (Oryctolagus cuniculus, UniProt G1T4Q9); test: Inhibition of purified 26S proteasomes, substrate Suc-LLVY-amc; type: biochemical, rabbit; details: >>30 no inhibition at 30 μM, >30 inhibition between 10 and 50% at 30 μM, read-out: IC50 for sites in 26S proteasomes: Chym-L
T3 sequence (G1T4Q9 1-263): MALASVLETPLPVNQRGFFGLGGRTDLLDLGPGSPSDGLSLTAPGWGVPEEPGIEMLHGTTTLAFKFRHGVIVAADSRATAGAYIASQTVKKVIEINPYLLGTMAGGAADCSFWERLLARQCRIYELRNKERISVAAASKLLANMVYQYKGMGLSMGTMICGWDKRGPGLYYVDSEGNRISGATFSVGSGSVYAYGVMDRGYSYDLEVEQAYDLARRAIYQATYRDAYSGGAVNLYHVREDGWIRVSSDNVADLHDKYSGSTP
Method: 26S proteasomes were purified from rabbit muscle using known methods (Screen, et al. (2010) supra). […] NOVEX Bis-Tris gels (12%, Invitrogen) with MOPS running buffer were used for electrophoretic separation of catalytic subunits modified by active-site probes. Inhibition of active sites inside cells was assayed using luminescent PROTEASOMEGLO assay (Promega; Moravec, et al. (2009) Anal. Biochem. 387:294-302) according to known methods (Britton, et al. (2009) supra).

[10] = molecular target: T4, β2 proteasome subunit (Homo sapiens, UniProt P49720+Q99436); test: Competition assay in HEK-293T cell lysate with MV151; type: biochemical; details: HEK293 extracts
T4 construct: Whole cell lysates of HEK-293T or EL-4 cells were made by sonication; endogenous in cells; host or cells: HEK-293T
Method: Protein concentration was determined by the Bradford assay.
Competitive inhibition of a proteasome active site is reflected by the disappearance of the corresponding band on a gel.

[11] = molecular target: T5, trypsin-like site of 26S proteasomes (Oryctolagus cuniculus, UniProt G1SWK8); test: Inhibition of purified 26S proteasomes, substrate Ac-RLR-amc; type: biochemical, rabbit; details: purified 26S proteasomes; >>30 no inhibition at 30 μM, >30 inhibition between 10 and 50% at 30 μM; read-out: IC50 for sites in 26S proteasomes: Tr-L
T5 construct: IC50 for sites in 26S proteasomes: Tr-L; other: purified 26S proteasomes; other: 26S proteasomes from rabbit muscles
T5 sequence (G1SWK8 1-271): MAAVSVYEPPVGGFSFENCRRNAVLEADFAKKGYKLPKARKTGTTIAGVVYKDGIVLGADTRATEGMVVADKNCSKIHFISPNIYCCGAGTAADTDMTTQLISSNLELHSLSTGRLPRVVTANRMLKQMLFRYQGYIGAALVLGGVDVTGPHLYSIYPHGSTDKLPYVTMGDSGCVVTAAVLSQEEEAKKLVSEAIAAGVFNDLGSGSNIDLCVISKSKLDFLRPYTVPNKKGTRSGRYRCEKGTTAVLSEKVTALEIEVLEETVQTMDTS

[12] = KMS-12-BM, carfilzomib 11 nM 1 h
[13] = KMS-12-BM, carfilzomib 33 nM 1 h
[14] = KMS-12-BM, carfilzomib 100 nM 1 h
[15] = KMS-12-BM, carfilzomib 300 nM 1 h
[16] = KMS-12-BM, carfilzomib 900 nM 1 h
[17] = NCI-H929, carfilzomib 3.7 nM 1 h
[18] = NCI-H929, carfilzomib 11 nM 1 h
[19] = NCI-H929, carfilzomib 33 nM 1 h

## CC(C)C[C@H](NC(=O)[C@H](CCc1ccccc1)NC(=O)CN1CCOCC1)C(=O)N[C@@H](Cc1ccccc1)C(=O)N[C@@H](CC(C)C)C(=O)[C@@]1(C)CO1 [Carfilzomib]
[1]
  inhibition of the chymotrypsin-like sites in patients: ~90%
[2]; [12]
  Inhibition of chymotrypsin-like sites, 1 h: 75 ± 6 % control
  Inhibition of chymotrypsin-like sites, 6 h −NC-022: 67 ± 17 % control
[2]; [13]
  Inhibition of chymotrypsin-like sites, 1 h: 90 ± 3 % control
  Inhibition of chymotrypsin-like sites, 6 h −NC-022: 97 ± 1 % control
[2]; [14]
  Inhibition of chymotrypsin-like sites, 1 h: 95 ± 3 % control
  Inhibition of chymotrypsin-like sites, 6 h −NC-022: 97 ± 1 % control
[2]; [15]
  Inhibition of chymotrypsin-like sites, 1 h: 97 ± 3 % control
  Inhibition of chymotrypsin-like sites, 6 h −NC-022: 97 ± 1 % control
[2]; [16]
  Inhibition of chymotrypsin-like sites, 1 h: 98 ± 3 % control
  Inhibition of chymotrypsin-like sites, 6 h −NC-022: 97 ± 0 % control
[2]; [17]
  Inhibition of chymotrypsin-like sites, 1 h: 14 ± 43 % control
  Inhibition of chymotrypsin-like sites, 6 h −NC-022: 65.5 % control
[2]; [18]
  Inhibition of chymotrypsin-like sites, 1 h: 39 ± 35 % control
  Inhibition of chymotrypsin-like sites, 6 h −NC-022: 89 ± 11 % control
[2]; [19]
  Inhibition of chymotrypsin-like sites, 1 h: 75 ± 17 % control
  Inhibition of chymotrypsin-like sites, 6 h −NC-022: 95 ± 7 % control
[3]; [12]
  Inhibition of chymotrypsin-like sites, 6 h +NC-022: 63 ± 13 % control
[3]; [13]
  Inhibition of chymotrypsin-like sites, 6 h +NC-022: 84 ± 6 % control
[3]; [14]
  Inhibition of chymotrypsin-like sites, 6 h +NC-022: 90 ± 3 % control
[3]; [15]
  Inhibition of chymotrypsin-like sites, 6 h +NC-022: 95 ± 4 % control
[3]; [16]
  Inhibition of chymotrypsin-like sites, 6 h +NC-022: 99 ± 4 % control
[3]; [17]
  Inhibition of chymotrypsin-like sites, 6 h +NC-022: 41 ± 29 % control
[3]; [18]
  Inhibition of chymotrypsin-like sites, 6 h +NC-022: 52 ± 32 % control
[3]; [19]
  Inhibition of chymotrypsin-like sites, 6 h +NC-022: 71 ± 23 % control
[4]; [12]
  Inhibition of trypsin-like sites, 1 h: −3 ± 10 % control
  Inhibition of trypsin-like sites, 6 h +NC-022: 91 ± 2 % control
  Inhibition of trypsin-like sites, 6 h −NC-022: 5 ± 25 % control
[4]; [13]
  Inhibition of trypsin-like sites, 1 h: 0 ± 11 % control
  Inhibition of trypsin-like sites, 6 h +NC-022: 91 ± 2 % control
  Inhibition of trypsin-like sites, 6 h −NC-022: 45 ± 4 % control
[4]; [14]
  Inhibition of trypsin-like sites, 1 h: 18 ± 8 % control
  Inhibition of trypsin-like sites, 6 h +NC-022: 94 ± 2 % control
  Inhibition of trypsin-like sites, 6 h −NC-022: 62 ± 2 % control
[4]; [15]
  Inhibition of trypsin-like sites, 1 h: 49 ± 18 % control
  Inhibition of trypsin-like sites, 6 h +NC-022: 93 ± 2 % control
  Inhibition of trypsin-like sites, 6 h −NC-022: 69 ± 2 % control
[4]; [16]
  Inhibition of trypsin-like sites, 1 h: 75 ± 14 % control
  Inhibition of trypsin-like sites, 6 h +NC-022: 94 ± 3 % control
  Inhibition of trypsin-like sites, 6 h −NC-022: 72 ± 2 % control
[4]; [17]
  Inhibition of trypsin-like sites, 1 h: −7 ± 18 % control
  Inhibition of trypsin-like sites, 6 h +NC-022: 93 ± 3 % control
  Inhibition of trypsin-like sites, 6 h −NC-022: 3 % control
[4]; [18]
  Inhibition of trypsin-like sites, 1 h: 0 ± 14 % control
  Inhibition of trypsin-like sites, 6 h +NC-022: 93 ± 2 % control
  Inhibition of trypsin-like sites, 6 h −NC-022: 39 ± 36 % control
[4]; [19]
  Inhibition of trypsin-like sites, 1 h: 17 ± 8 % control
  Inhibition of trypsin-like sites, 6 h +NC-022: 94 ± 3 % control
  Inhibition of trypsin-like sites, 6 h −NC-022: 46 ± 24 % control
[5]; carfilzomib 11 nM 1 h
  Viability +NC-022: 69 ± 2 % control
  Viability −NC-022: 95 ± 3 % control
[5]; carfilzomib 33 nM 1 h
  Viability +NC-022: 40 ± 3 % control
  Viability −NC-022: 91 ± 3 % control
[5]; carfilzomib 100 nM 1 h
  Viability +NC-022: 27 ± 5 % control
  Viability −NC-022: 83.5 ± 3 % control
[5]; carfilzomib 300 nM 1 h
  Viability +NC-022: 15 ± 1 % control
  Viability −NC-022: 71 ± 2 % control
[5]; carfilzomib 900 nM 1 h
  Viability +NC-022: 9 ± 1 % control
  Viability −NC-022: 41 ± 7 % control
[6]; carfilzomib 3.7 nM 1 h
  Viability +NC-022: 36 ± 15 % control
  Viability −NC-022: 99 ± 9 % control
[6]; carfilzomib 11 nM 1 h
  Viability +NC-022: 14 ± 8 % control
  Viability −NC-022: 78 ± 15 % control
[6]; carfilzomib 33 nM 1 h
  Viability +NC-022: 4 ± 2 % control
  Viability −NC-022: 30 ± 11 % control

## CC(C)C[C@H](NC(=O)[C@H](Cc1ccc(CN)cc1)NC(=O)[C@H](Cc1ccccc1)N=[N+]=[N-])C(=O)N[C@H](/C=C/S(C)(=O)=O)Cc1ccc(CN)cc1 [Compound 52, N3-Phe-Phe (4-CH2NH2)-Leu-Phe (4-CH2NH2)-VS]
[7]
  difference in IC50 for trypsin-like activity between NCI-H929 and RPMI-8226: 2.5 fold
[8]
  inhibition of cathepsins (Z-FR-amc): slightly more potent inhibitor of cathepsins
[9]
  IC50: 3.9 µM
[10]
  potency in extracts of human cells: most potent inhibitor in extracts
[11]
  IC50: 6.6 nM
